Results: ChEMBL document CHEMBL4007412, “Design, Synthesis, and Biological Evaluation of Mitochondria-Targeted Flavone-Naphthalimide-Polyamine Conjugates with Antimetastatic Activity” (J Med Chem, 2017)

Tested on: SMMC-7721
Test: Cytotoxicity against human SMMC7721 cells assessed as cell growth inhibition after 48 hrs by MTT assay
Type: functional, cell-based
Conditions: SMMC-7721, 48 h
In the case of `CCCCN(CCCC)CCCN1C(=O)c2cccc3c(-c4cc(=O)c5ccccc5o4)ccc(c23)C1=O`, the IC50 is reported as 16.5 µM.
`CN(C)CCN1C(=O)c2cccc3cc(N)cc(c23)C1=O` [AMONAFIDE] gave an IC50 of 9.95 µM.
Work on `O=C1c2cccc3c(-c4cc(=O)c5ccccc5o4)ccc(c23)C(=O)N1CCCN1CCNCC1` yielded an IC50 of 43.5 µM.
For `NCCCNCCCNCCCN1C(=O)c2cccc3c(-c4cc(=O)c5ccccc5o4)ccc(c23)C1=O`, the IC50 was 11.3 µM.
Work on `O=C1c2cccc3c(-c4cc(=O)c5ccccc5o4)ccc(c23)C(=O)N1CCCCN1CCNCC1` yielded an IC50 of 16.6 µM.
Compound `O=C1c2cccc3c(-c4cc(=O)c5ccccc5o4)ccc(c23)C(=O)N1CCCN1CCOCC1` has an IC50 of 31.6 µM.
In the case of `CCCCNCCCCN1C(=O)c2cccc3c(-c4cc(=O)c5ccccc5o4)ccc(c23)C1=O`, the IC50 is reported as 10.9 µM.
Compound `NCCCCNCCCN1C(=O)c2cccc3c(-c4cc(=O)c5ccccc5o4)ccc(c23)C1=O` has an IC50 of 11.1 µM.

Tested on: HepG2
Test: Cytotoxicity against human HepG2 cells assessed as cell growth inhibition after 48 hrs by MTT assay
Type: functional, cell-based
Conditions: HepG2, 48 h
`CCCCN(CCCC)CCCN1C(=O)c2cccc3c(-c4cc(=O)c5ccccc5o4)ccc(c23)C1=O` showed an IC50 of 18.9 µM.
Work on `CN(C)CCN1C(=O)c2cccc3cc(N)cc(c23)C1=O` [AMONAFIDE] yielded an IC50 of 10.1 µM.
With `O=C1c2cccc3c(-c4cc(=O)c5ccccc5o4)ccc(c23)C(=O)N1CCCN1CCNCC1` the IC50 was greater than 50 µM.
In the case of `NCCCNCCCNCCCN1C(=O)c2cccc3c(-c4cc(=O)c5ccccc5o4)ccc(c23)C1=O`, the IC50 is reported as 14.7 µM.
Compound `O=C1c2cccc3c(-c4cc(=O)c5ccccc5o4)ccc(c23)C(=O)N1CCCCN1CCNCC1` has an IC50 of 15.5 µM.
For `O=C1c2cccc3c(-c4cc(=O)c5ccccc5o4)ccc(c23)C(=O)N1CCCN1CCOCC1`, the IC50 was greater than 50 µM.
With `CCCCNCCCCN1C(=O)c2cccc3c(-c4cc(=O)c5ccccc5o4)ccc(c23)C1=O` the IC50 was 10.1 µM.
For `NCCCCNCCCN1C(=O)c2cccc3c(-c4cc(=O)c5ccccc5o4)ccc(c23)C1=O`, the IC50 was 9.84 µM.

Tested on: not listed separately
Test: Cytotoxicity against human QSG7701 cells assessed as cell growth inhibition after 48 hrs by MTT assay
Type: cell-based
Conditions: QSG7701, 48 h
`CCCCN(CCCC)CCCN1C(=O)c2cccc3c(-c4cc(=O)c5ccccc5o4)ccc(c23)C1=O` showed an IC50 greater than 50 µM.
For `CN(C)CCN1C(=O)c2cccc3cc(N)cc(c23)C1=O` [AMONAFIDE], the IC50 was 7.84 µM.
`O=C1c2cccc3c(-c4cc(=O)c5ccccc5o4)ccc(c23)C(=O)N1CCCN1CCNCC1` showed an IC50 of 34.7 µM.
For `NCCCNCCCNCCCN1C(=O)c2cccc3c(-c4cc(=O)c5ccccc5o4)ccc(c23)C1=O`, the IC50 was 17.4 µM.
Compound `O=C1c2cccc3c(-c4cc(=O)c5ccccc5o4)ccc(c23)C(=O)N1CCCCN1CCNCC1` has an IC50 of 16.9 µM.
In the case of `O=C1c2cccc3c(-c4cc(=O)c5ccccc5o4)ccc(c23)C(=O)N1CCCN1CCOCC1`, the IC50 is reported as 47.7 µM.
Work on `CCCCNCCCCN1C(=O)c2cccc3c(-c4cc(=O)c5ccccc5o4)ccc(c23)C1=O` yielded an IC50 of 16.1 µM.
`NCCCCNCCCN1C(=O)c2cccc3c(-c4cc(=O)c5ccccc5o4)ccc(c23)C1=O` showed an IC50 of 41.8 µM.

Tested on: H22
Test: Antitumor activity against […] xenografted in Kunming mouse assessed as suppression of tumor weight at 5 mg/kg, iv dosed every day starting from day 8 after tumor cell inoculation
Type: functional
Conditions: not given
`CN(C)CCN1C(=O)c2cccc3cc(N)cc(c23)C1=O` [AMONAFIDE] showed an Activity of 48.1%.

Tested on: H22
Test: Antimetastatic activity against […] xenografted in pulmonary metastasis Kunming mouse model assessed as reduction in tumor metastatic nodules at 5 mg/kg, iv dosed every day starting from day 8 after tumor cell inoculation
Type: functional
Set-up: scale not given: the % may be the effect or the level left
Conditions: not given
In the case of `CN(C)CCN1C(=O)c2cccc3cc(N)cc(c23)C1=O` [AMONAFIDE], the Activity is reported as 41.4%.
